# Where “and” joins values, the source holds several entries; their conditions need not be identical. Equal entries are not always repeated.
# Tests used:
# [1] = Water solubility, protocol I (PBS, HPLC); assay type: physicochemical; details: Method I: PBS without CaCl₂ and MgCl₂.6H₂O
# Protocol: The supernatant (2 µL) was analyzed by HPLC using the conditions specified for each compound in the Experimental Section. […] When not soluble, an additional amount of PBS (x µL) was added, sonicated, and centrifuged. When visibly soluble, the solution (2 µL) was injected to HPLC and the peak area was used for the known concentration of the sample.
# [2] = system: FA21436; assay: In vitro antifungal activity, serial agar dilution method (Table 1); assay type: cell-based, Asoergukkys flavus; details: Sabouraud dextrose agar (pH 7.0); 28°C for 40 hours; read-out: MIC, Asoergukkys flavus FA21436
# Protocol: (§1) The inoculum size was adjusted to 10⁶ cells/ml, and a volume of approximately 0.003 ml of fungal suspension was applied to the surface of the antibiotic containing agar plates with a multiinoculator. After incubation, the lowest concentration of antibiotic causing virtually complete inhibition of fungal growth was determined as the minimum inhibitory concentration (MIC). Table 1. [table]
# [3] = system: Saccharomyces cerevisiae A25803; assay: In vitro antifungal activity, serial agar dilution method (Table 1a); assay type: cell-based; details: YM agar (pH 7.0, Difco), 30°C for 2 days (yeast) or 4 days (filamentous fungi), read-out: MICs, Saccharomyces cerevisiae A25803
# Protocol: as §1, with “(MIC).” for “(MIC). Table 1. [table]”
# [4] = system: Candida tropicalis A25809; assay: as above; assay type: cell-based; details: YM agar (pH 7.0, Difco), 30°C for 2 days (yeast) or 4 days (filamentous fungi), read-out: MICs, Candida tropicalis A25809
# Protocol: as §1, with “(MIC).” for “(MIC). Table 1. [table]”
# [5] = system: Candida paratropicalis A25825; assay: as above; assay type: cell-based; details: YM agar (pH 7.0, Difco); 30°C for 2 days (yeast) or 4 days (filamentous fungi); read-out: MICs, Candida paratropicalis A25825
# Protocol: as §1, with “(MIC).” for “(MIC). Table 1. [table]”
# [6] = system: Microsporum canis WW10218; assay: as above; assay type: cell-based; details: WW10218, YM agar (pH 7.0, Difco), 30°C for 2 days (yeast) or 4 days (filamentous fungi), read-out: MICs, Microsporum canis WW10218
# Protocol: as §1, with “(MIC).” for “(MIC). Table 1. [table]”
# [7] = system: Trichophyton mentagrophytes #4329; assay: In vitro antifungal activity, serial agar dilution method (Table 1); assay type: cell-based; details: Trichophyton mentagrophytes; Sabouraud dextrose agar (pH 7.0); 28°C for 40 hours
# Protocol: as §1
# [8] = system: Aspergillus fumigatus IAM2034; assay: as above; assay type: cell-based; details: Aspergillus fumigatus, IAM2034; Sabouraud dextrose agar (pH 7.0); 28°C for 40 hours
# Protocol: as §1
# [9] = system: Fusarium moniliforme A2284; assay: as above; assay type: cell-based; details: Fusarium verticillioides, A2284; Sabouraud dextrose agar (pH 7.0); 28°C for 40 hours
# Protocol: as §1
# [10] = system: Cryptococcus neoformans IAM4514; assay: as above; assay type: cell-based; details: Cryptococcus neoformans, IAM4514; Sabouraud dextrose agar (pH 7.0); 28°C for 40 hours
# Protocol: as §1
# [11] = system: Sprotricosis schenckii IFO8158; assay: as above; assay type: cell-based; details: Sabouraud dextrose agar (pH 7.0); 28°C for 40 hours; read-out: MIC, Sprotricosis schenckii IFO8158
# Protocol: as §1
# [12] = system: Mucor spinosus IFO5317; assay: as above; assay type: cell-based; details: Sabouraud dextrose agar (pH 7.0), 28°C for 40 hours
# Protocol: as §1
# [13] = system: Aspergillus fumigatus IAM2530; assay: as above; assay type: cell-based; details: Aspergillus fumigatus, IAM2530; Sabouraud dextrose agar (pH 7.0); 28°C for 40 hours
# Protocol: as §1
# [14] = system: Blastomyces dermatidis D40; assay: as above; assay type: cell-based; details: Blastomyces, D40; Sabouraud dextrose agar (pH 7.0); 28°C for 40 hours; read-out: MIC, Blastomyces dermatidis D40
# Protocol: as §1
# [15] = system: Cryptococcus neoformans D49; assay: as above; assay type: cell-based; details: Cryptococcus neoformans, D49; Sabouraud dextrose agar (pH 7.0); 28°C for 40 hours; read-out: MIC, Cryptococcus neoformans D49
# Protocol: as §1
# [16] = system: Petriellidium boydii IFO8078; assay: as above; assay type: cell-based; details: Scedosporium boydii, IFO8078; Sabouraud dextrose agar (pH 7.0); 28°C for 40 hours
# Protocol: as §1
# [17] = system: Candida albicans A9540; assay: as above; assay type: cell-based; details: Candida albicans, A9540; Sabouraud dextrose agar (pH 7.0); 28°C for 40 hours
# Protocol: as §1
# [18] = system: Candida albicans IAM4888; assay: as above; assay type: cell-based; details: Candida albicans, IAM4888; Sabouraud dextrose agar (pH 7.0); 28°C for 40 hours
# Protocol: as §1
# [19] = system: Trichophyton mentagrophytes D155; assay: as above; assay type: cell-based; details: Trichophyton mentagrophytes, D155; Sabouraud dextrose agar (pH 7.0); 28°C for 40 hours
# Protocol: as §1
# [20] = system: Candida albicans A9540; assay: Intravenous Candida albicans infection mouse model, Table 2 part A; assay type: in vivo; details: drug administered once just after infection, 20 days after fungal challenge, method of Litchfield and Wilcoxon, male ICR mice
# Protocol: (§2) Several compounds were also evaluated in an intravenous Candida albicans […] infection mouse model. The test organism was suspended in saline approximately 10 times the median lethal dose of the fungus (10⁶ cells/mouse) were used to infect intravenously male ICR mice weighing 20 to 24 g. Groups of five mice at each dose level were given the test compounds intravenously or intramuscularly. The 50% protective dose (PD₅₀) was calculated from survival rates recorded 20 or 21 days after the fungal challenge. Control animals died between 7 to 15 days.
# [21] = system: Candida albicans A9540; assay: Intravenous Candida albicans infection mouse model, Table 2 part B; assay type: in vivo, mice; details: at 1 and 3.5 hrs after infection and twice on the following day, 21 days after fungal challenge, method of Spearman-Karber, male ICR mice
# Protocol: as §2, with “Control animals died between 7 to 15 days.” left out
# [22] = physchem
# Protocol: The sample (3 ∼ 3.5 mg) was suspended in 1 ml of PBS(-) or PBS(+), sonicated at 30°C for 10 minutes, and allowed to stand at room temperature for 2 hours. The resulting solution or suspension was centrifuged at 12,000 rpm for 10 minutes. The supernatant (pH 6.7 ∼ 7.2) was diluted (5 x or 50 x) with 0.01N NaOH (pH ca. 11.5) and its UV absorption at 500 nm was measured. The solubility was assessed by the absorption coefficient value with reference to the standard. […] The zwitterionic form sample was used for the solubility test as it is. The hydrochloride salt sample (3 mg) was dissolved in 3 ml of distilled water and neutralized with 0.01N NaOH, and then the solution was lyophilized to give a test sample.
# Dulbecco's phosphate buffered saline (PBS) solution was used. Preparation of PBS(-) solution: One PBS(-) tablet (Flow Laboratories, Cat. No. 28-103-05) was dissolved in 100 ml distilled water, and the solution was autoclaved for 10 minutes at 115°C. This solution contains 0.2 g/L of KCl, 0.2 g/L of KH₂PO₄, 8 g/L of NaCl, and 1.15 g/L of Na₂HPO₄. Preparation of PBS(+) solution: One PBS(-) tablet was dissolved in 80 ml distilled water; 10 mg of CaCl₂ was dissolved in 10 ml distilled water; 10 mg of MgCl₂, 6H₂O was dissolved in 10 ml distilled water. These solutions were separately autoclaved, as described above, and mixed when cooled.
smiles,measurement,setting,value
"CN[C@@H]1[C@H](O[C@@H]2OC[C@@H](O)[C@H](O)[C@H]2O)[C@@H](O)[C@H](O[C@H]2c3cc(C)c(C(=O)N[C@H](C)C(=O)O)c(O)c3-c3c(cc4c(c3O)C(=O)c3cc(OC)cc(O)c3C4=O)[C@@H]2O)O[C@@H]1C [Pradimicin A, reference compound]",solubility,[1],17 µg/mL
same,MIC,[2],6.3 µg/mL
same,MIC,[3],0.8 µg/mL
same,MIC,[4],1.6 µg/mL
same,MIC,[5],> 50 µg/mL
same,MIC,[6],1.6 µg/mL
same,MIC,[7],3.1 µg/mL
same,MIC,[8],3.1 µg/mL
same,MIC,[9],3.1 µg/mL
same,MIC,[10],0.8 µg/mL
same,MIC,[11],1.6 µg/mL
same,MIC,"[12]; Mucor spinosus, IFO5317",> 100 µg/mL
same,"Partial Inhibition, Mucor spinosus IFO5317",[12]; value in parentheses = Partial Inhibition,12.5 µg/mL
same,MIC,[13],3.1 µg/mL
same,MIC,[14],3.1 µg/mL
same,MIC,[15],0.8 µg/mL
same,MIC,[16],12.5 µg/mL
same,MIC,[17],50 µg/mL
same,MIC,[18],6.3 µg/mL
same,MIC,[19],6.3 µg/mL
same,PD₅₀,[20],11 mg/kg and 7.9 mg/kg
same,PD₅₀,[21]; Part B: route IM,8.2 mg/kg
same,PD₅₀,[21]; Part B: route IV,30 mg/kg
same,solubility at 2 h,[22]; Method II (+): PBS(+),81 µg/mL
same,solubility at 2 h,[22]; Method II (-): PBS(-),17 µg/mL

# From patent publication EP0428132A1, “Pradimicin derivatives” (Bristol-Myers Squibb Company, priority 1989, dated 1991)
